Data on 20 compounds can be found in patent US9598424B2 (Takeda Pharmaceutical Company Limited, priority 2014, dated 2017).

One test addresses T1, TBK1 (Homo sapiens, UniProt Q9UHD2).
T1 construct: host or cells: RA1-ISRE beta-lactamase reporter cells
T1 sequence (Q9UHD2 1-729): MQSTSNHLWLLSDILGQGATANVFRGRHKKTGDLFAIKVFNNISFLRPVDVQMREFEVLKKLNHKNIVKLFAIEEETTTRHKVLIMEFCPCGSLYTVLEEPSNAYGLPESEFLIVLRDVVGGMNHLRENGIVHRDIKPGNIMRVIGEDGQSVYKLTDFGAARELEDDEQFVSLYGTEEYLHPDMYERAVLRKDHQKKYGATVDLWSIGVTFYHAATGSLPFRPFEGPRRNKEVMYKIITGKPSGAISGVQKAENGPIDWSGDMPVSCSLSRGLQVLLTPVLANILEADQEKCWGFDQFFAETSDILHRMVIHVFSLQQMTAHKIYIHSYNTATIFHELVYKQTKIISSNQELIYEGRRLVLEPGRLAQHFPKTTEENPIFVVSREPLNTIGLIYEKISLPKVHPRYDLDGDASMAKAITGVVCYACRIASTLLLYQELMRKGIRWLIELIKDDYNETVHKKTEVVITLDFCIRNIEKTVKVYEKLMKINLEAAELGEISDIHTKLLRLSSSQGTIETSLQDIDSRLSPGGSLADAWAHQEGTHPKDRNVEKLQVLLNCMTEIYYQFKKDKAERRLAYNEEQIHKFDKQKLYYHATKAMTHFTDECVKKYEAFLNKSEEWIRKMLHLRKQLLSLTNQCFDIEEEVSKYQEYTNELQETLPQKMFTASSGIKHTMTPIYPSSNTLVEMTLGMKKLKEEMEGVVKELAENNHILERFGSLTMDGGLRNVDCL
Nature of the test: Inhibition of TBK1 in Cells (TLR3 driven ISRE β-lactamase reporter assay). In kind it is cell-based. The following applies: poly IC-LMW stimulation 16 hrs; -log(EC50), EC50 molar; read-out: Inhibition of TBK1 in cells pEC50 (EC) (converted). As to the method: TBK1 inhibition is determined using a TLR3 driven RA1-ISRE β-lacatamase reporter assay (Life Technologies). In the assay 50,000 cells/well are plated in black clear bottom 384 well plate. Each test compound is prepared in DMSO using 2.5-fold serial dilutions for 11 data points, which are then added to the media. Cells are stimulated with 0.15 mg/ml poly IC-LMW (Invivogen) for 16 hrs. Reporter activity is detected using the LiveBLAzer-FRET B/G CCF4-AM substrate (Life Technologies) and the plate is read using the Spectramax M5 instrument. Corresponding EC50 values are calculated by non-linear curve fitting of the compound concentrations and percent of inhibition to the standard EC50 equation and reported as pEC50, i.e., −log(EC50), where EC50 is the molar concentration.
On the technique in general: In a reporter assay the amount or activity of a reporter protein is the signal.

In another test the target is T2, Full length human TBK1 (Homo sapiens, UniProt Q9UHD2).
T2 construct: Full length human TBK1 with an N-terminal His-tag; His-tag (N); made in house; host or cells: Sf9 insect cells (baculovirus, pFastBac1)
T2 sequence (Q9UHD2 1-729): T1 sequence (Q9UHD2 1-729)
Nature of the test: Inhibition of TBK1 Enzyme (Caliper microfluidic assay). In kind it is biochemical. To be noted: 25 μM ATP, 60 min at RT; -log(IC50), IC50 molar; read-out: TBK1 Inhibition (pIC50) (converted). As to the method:
Full length human TBK1 with an N-terminal His-tag was cloned into the pFastBacl vector and was transfected into Sf9 cells. 72 hours later the virus was harvested and amplified through two additional rounds of infections. Then 400 ml of the resulting virus stock was used to infect 10L of Sf9 cells at a density of 2×10^6 cells/ml. Cell pellets were harvested 48 hours post infection and were lysed by freeze-thaw, homogenization and sonication in binding buffer (25 mM Tris pH7.6, 1 M NaCl, 10 mM imidazole, 0.5 mM TCEP) plus 0.1% Triton X-100 and complete protease inhibitor cocktail. The lysate was spun and the supernatant was purified with a HisTrap FF crude and a Superdex 200 pg column.
TBK1 inhibition is determined using a 384 well plate format in buffer containing 20 mM Hepes, pH 7.4, 10 mM MgCl2, 1 mM EDTA, 0.01% Brij-L23, 1 mM DTT. Each test compound is prepared in DMSO using 2.5-fold serial dilutions for 11 data points, which are added to the buffer so that each dilution contains 1% DMSO. To each well is added 2 μL of 1 μm 5FAM-DRHDSGLDSMKDE-NH2 (in buffer), 2 μL of diluted test compound (1% DMSO in buffer), and 5 μL of 3 nM TBK1 and 25 μM ATP (in buffer). The reaction mixture is incubated at RT for 60 min, and quenched by adding 20 mM Hepes, pH 7.4, 10 mM MgCl2, 1 mM EDTA, 0.01% Brij-L23, 1 mM DTT+25 mM EDTA. To quantify the fluorescent-labeled substrate and product following reaction, the test plate is loaded on a Caliper LC-3000, which measures percent of conversion by microfluidic-based separation. Corresponding IC50 values are calculated by non-linear curve fitting of the compound concentrations and percent of inhibition to the standard IC50 equation and reported as pIC50, i.e., −log(IC50), where IC50 is the molar concentration.

On to `O=C(Nc1cn2cc(-c3csc(C(=O)N4CCC[C@@H]4C(F)(F)F)c3)ccc2n1)C1CC1` [Example 62, (R)-N-(6-(5-(2-(trifluoromethyl)pyrrolidine-1-carbonyl)thiophen-3-yl)imidazo[1,2-a]pyridin-2-yl)cyclopropanecarboxamide], for which, at TBK1, the EC50 is 74.1 nM. The IC50 on Full length human TBK1 is 3.98 nM.
The corresponding values for `O=C(Nc1cn2cc(-c3csc(C(=O)N4CC(F)(F)C4)c3)ccc2n1)C1CC1` [Example 77, N-(6-(5-(3,3-difluoroazetidine-1-carbonyl)thiophen-3-yl)imidazo[1,2-a]pyridin-2-yl)cyclopropanecarboxamide] are 1660 nM and 63.1 nM.
The corresponding values for `O=C(NCC(F)(F)F)c1ccn(-c2cn3cc(NC(=O)C4CC4)nc3cn2)n1` [Example 36, 1-(2-(cyclopropanecarboxamido)imidazo[1,2-a]pyrazin-6-yl)-N-(2,2,2-trifluoroethyl)-1H-pyrazole-3-carboxamide] are 245 nM and 10 nM.
For the compound `O=C(NCC(F)F)c1cc(-c2cn3cc(NC(=O)C4CC4)nc3cn2)cs1` [Example 19, 4-(2-(cyclopropanecarboxamido)imidazo[1,2-a]pyrazin-6-yl)-N-(2,2-difluoroethyl)thiophene-2-carboxamide], the EC50 on TBK1 was 407 nM. In addition, the IC50 on Full length human TBK1 is 5.01 nM.
In the same order, the values of `O=C(NCC(F)(F)F)c1cc(-c2cn3cc(NC(=O)C4CC4)nc3cn2)cs1` [Example 33, 4-(2-(cyclopropanecarboxamido)imidazo[1,2-a]pyrazin-6-yl)-N-(2,2,2-trifluoroethyl)thiophene-2-carboxamide] are 269 nM and 5.01 nM.
The corresponding values for `O=C(Nc1cn2cc(-c3cc(C(=O)N4CCC(F)C4)[nH]n3)ccc2n1)C1CC1` (stereo not shown) [Example 107, N-(6-(5-(3-fluoropyrrolidine-1-carbonyl)-1H-pyrazol-3-yl)imidazo[1,2-a]pyridin-2-yl)cyclopropanecarboxamide] are 2750 nM and 63.1 nM.
The corresponding values for `O=C(NCC(F)(F)F)c1cc(-c2ccc3nc(NC(=O)C4CC4)cn3c2)sn1` [Example 26, 5-(2-(cyclopropanecarboxamido)imidazo[1,2-a]pyridin-6-yl)-N-(2,2,2-trifluoroethyl)isothiazole-3-carboxamide] are 759 nM and 79.4 nM.
As to `O=C(Nc1cn2cc(-c3csc(C(=O)N4CCC(O)C4)n3)ccc2n1)C1CC1` (stereo not shown) [Example 112, N-(6-(2-(3-hydroxypyrrolidine-1-carbonyl)thiazol-4-yl)imidazo[1,2-a]pyridin-2-yl)cyclopropanecarboxamide], the EC50 at TBK1 is 4370 nM. For the same compound, the IC50 on Full length human TBK1 was 79.4 nM.
In the same order, the values of `NC(=O)C1CCN(C(=O)c2nc(-c3ccc4nc(NC(=O)C5CC5)cn4c3)cs2)C1` (stereo not shown) [Example 98, 1-(4-(2-(cyclopropanecarboxamido)imidazo[1,2-a]pyridin-6-yl)thiazole-2-carbonyl)pyrrolidine-3-carboxamide] are 14500 nM and 200 nM.
In the same order, the values of `C[C@H](NC(=O)c1cc(-c2ccc3nc(NC(=O)C4CC4)cn3c2)cs1)C(F)(F)F` [Example 80, (S)-4-(2-(cyclopropanecarboxamido)imidazo[1,2-a]pyridin-6-yl)-N-(1,1,1-trifluoropropan-2-yl)thiophene-2-carboxamide] are 1380 nM and 63.1 nM.
For `O=C(NC1COCC1O)c1cc(-c2ccc3nc(NC(=O)C4CC4)cn3c2)cs1` (stereo not shown) [Example 84, 4-(2-(cyclopropanecarboxamido)imidazo[1,2-a]pyridin-6-yl)-N-(4-hydroxytetrahydrofuran-3-yl)thiophene-2-carboxamide], the EC50 on TBK1 is 2820 nM. Also, the IC50 on Full length human TBK1 was 31.6 nM.
In the same order, the values of `CN(CC(F)(F)F)C(=O)c1cc(-c2ccc3nc(NC(=O)C4CC4)cn3c2)n[nH]1` [Example 106, 3-(2-(cyclopropanecarboxamido)imidazo[1,2-a]pyridin-6-yl)-N-methyl-N-(2,2,2-trifluoroethyl)-1H-pyrazole-5-carboxamide] are 589 nM and 31.6 nM.
The corresponding values for `CC1CCCN1C(=O)c1cc(-c2ccc3nc(NC(=O)C4CC4)cn3c2)n[nH]1` (stereo not shown) [Example 123, N-(6-(5-(2-methylpyrrolidine-1-carbonyl)-1H-pyrazol-3-yl)imidazo[1,2-a]pyridin-2-yl)cyclopropanecarboxamide] are 2190 nM and 100 nM.
The corresponding values for `C[C@@H](NC(=O)c1cn(-c2ccc3nc(NC(=O)C4CC4)cn3c2)cn1)C(F)(F)F` [Example 43] are 2340 nM and 50.1 nM.
Consider `O=C(NCC(F)(F)F)c1cc(-c2ccc3nc(NC(=O)C4CC4)cn3n2)cs1` [Example 44, 4-(2-(cyclopropanecarboxamido)imidazo[1,2-b]pyridazin-6-yl)-N-(2,2,2-trifluoroethyl)thiophene-2-carboxamide], for which, on TBK1, the EC50 is 214 nM. Also, the IC50 at Full length human TBK1 is 3.98 nM.
In the same order, the values of `O=C(Nc1cn2cc(-c3csc(C(=O)N4CC(F)(F)C[C@H]4CO)n3)ccc2n1)C1CC1` [Example 96, (S)-N-(6-(2-(4,4-difluoro-2-(hydroxymethyl)pyrrolidine-1-carbonyl)thiazol-4-yl)imidazo[1,2-a]pyridin-2-yl)cyclopropanecarboxamide] are 851 nM and 63.1 nM.
In the case of `O=C(NCC1CCOC1)c1cc(-c2ccc3nc(NC(=O)C4CC4)cn3c2)cs1` (stereo not shown) [Example 75, 4-(2-(cyclopropanecarboxamido)imidazo[1,2-a]pyridin-6-yl)-N-((tetrahydrofuran-3-yl)methyl)thiophene-2-carboxamide], the EC50 on TBK1 was 1700 nM. Further, the IC50 on Full length human TBK1 is 50.1 nM.
In the same order, the values of `CC(F)(F)CNC(=O)c1cn(-c2ccc3nc(NC(=O)C4CC4)cn3c2)cn1` [Example 42, 1-(2-(cyclopropanecarboxamido)imidazo[1,2-a]pyridin-6-yl)-N-(2,2-difluoropropyl)-1H-imidazole-4-carboxamide] are 5130 nM and 100 nM.
In the same order, the values of `CC(C)C(NC(=O)c1cc(-c2ccc3nc(NC(=O)C4CC4)cn3c2)cs1)C(F)(F)F` (stereo not shown) [Example 117, 4-(2-(cyclopropanecarboxamido)imidazo[1,2-a]pyridin-6-yl)-N-(1,1,1-trifluoro-3-methylbutan-2-yl)thiophene-2-carboxamide] are 6460 nM and 50.1 nM.
In the same order, the values of `Cc1sc(C(=O)NCC(F)(F)F)cc1-c1cn2cc(NC(=O)C3CC3)nc2cn1` [Example 30, 4-(2-(cyclopropanecarboxamido)imidazo[1,2-a]pyrazin-6-yl)-5-methyl-N-(2,2,2-trifluoroethyl)thiophene-2-carboxamide] are 6460 nM and 25.1 nM.
